From patent US11149036B2, “3-(1H-pyrazol-4-yl)pyridine allosteric modulators of the M4 muscarinic acetylcholine receptor” (Merck Sharp & Dohme Corp., priority 2017, dated 2021) come the findings set out here.

Each structure is given as a SMILES string. pEC50: −log10 of the molar value.

In the assay the target is T1, human M4 muscarinic acetylcholine receptor (Homo sapiens, UniProt P08173).
T1 construct: expressed in transfected cells; host or cells: CHO-K1
T1 sequence (P08173 1-479): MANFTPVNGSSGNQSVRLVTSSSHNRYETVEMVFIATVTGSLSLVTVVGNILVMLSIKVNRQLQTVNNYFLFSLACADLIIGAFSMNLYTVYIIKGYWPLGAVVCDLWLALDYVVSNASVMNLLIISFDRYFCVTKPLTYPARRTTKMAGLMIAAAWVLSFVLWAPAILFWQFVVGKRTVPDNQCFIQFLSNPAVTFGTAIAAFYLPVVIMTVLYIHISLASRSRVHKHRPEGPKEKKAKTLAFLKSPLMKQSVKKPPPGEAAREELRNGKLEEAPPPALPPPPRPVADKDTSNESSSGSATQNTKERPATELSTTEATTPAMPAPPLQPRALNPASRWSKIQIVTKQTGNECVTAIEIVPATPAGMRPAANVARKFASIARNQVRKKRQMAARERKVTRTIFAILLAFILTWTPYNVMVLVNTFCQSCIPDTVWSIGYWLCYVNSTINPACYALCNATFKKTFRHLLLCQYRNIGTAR
Put plainly: human FLIPR-based M4 PAM assay (CHO-K1 cells with human M4 receptor and Gaqi5, calcium dye fluorescence). It is filed as cell-based. As to conditions: inflection point (IP) of dose response curve, acetylcholine added at 20% of maximum response, read-out: M4 FLIPPR Hu IP. The method in brief:
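CHO-K1 cells stably expressing human M4 with chimeric Gaqi5, calcium-dye loaded ~1 h at 37° C; compound added at increasing concentrations 4 min before acetylcholine at an EC20 concentration (sometimes a further EC70 addition).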
As for `N#Cc1ccc(-c2cnn(CC3(F)CCCC3)c2)c(-c2ccn3cc(CF)nc3c2)n1` [Example 135, 5-(1-((1-fluorocyclopentyl)methyl)-1H-pyrazol-4-yl)-6-(2-(fluoromethyl)imidazo[1,2-a]pyridin-7-yl)picolinonitrile], the pEC50 is 7.62.

In the case of `CC1(Cn2cc(-c3cc(F)c(F)nc3-c3ccn4ccnc4c3)cn2)CCCC1` [Example 137, 7-(5,6-difluoro-3-(1-((1-methylcyclopentyl)methyl)-1H-pyrazol-4-yl)pyridin-2-yl)imidazo[1,2-a]pyridine], the pEC50 is 7.68.

Take `O=C1c2cc(-c3ncccc3-c3cnn(CC4(F)CCCC4)c3)ccc2CN1C1CCC1` [Example 139, 2-cyclobutyl-6-(3-(1-((1-fluorocyclopentyl)methyl)-1H-pyrazol-4-yl)pyridin-2-yl)isoindolin-1-one]: the pEC50 is 7.77.

Turning to `O=C1c2cc(-c3ncccc3-c3cnn(CC4(F)CCCC4)c3)ccc2CN1CC1CCC1` [Example 140, 2-(cyclobutylmethyl)-6-(3-(1-((1-fluorocyclopentyl)methyl)-1H-pyrazol-4-yl)pyridin-2-yl)isoindolin-1-one], the pEC50 is 7.17.

Take `Cc1nc2cc(-c3nc(C#N)c(C)cc3-c3cnn(CC4(F)CCCC4)c3)ccn2n1` [Example 141, 5-(1-((1-fluorocyclopentyl)methyl)-1H-pyrazol-4-yl)-3-methyl-6-(2-methyl-[1,2,4]triazolo[1,5-a]pyridin-7-yl)picolinonitrile]: the pEC50 was 7.30.

With `Cc1cc(-c2cnn(CC3(F)CCCC3)c2)c(-c2cnc3c(c2)ncn3C)nc1C#N` [Example 142, 5-(1-((1-fluorocyclopentyl)methyl)-1H-pyrazol-4-yl)-3-methyl-6-(3-methyl-3H-imidazo[4,5-b]pyridin-6-yl)picolinonitrile], the pEC50 was 6.98.

In the case of `Cc1cc(-c2cnn(CC3(F)CCCC3)c2)c(-c2ccn3ncnc3c2)nc1C#N` [Example 143, 6-([1,2,4]triazolo[1,5-a]pyridin-7-yl)-5-(1-((1-fluorocyclopentyl)methyl)-1H-pyrazol-4-yl)-3-methylpicolinonitrile], the pEC50 is 7.15.

On to `CC1(Cn2ncc(-c3ccc(C#N)nc3-c3ccn4ccnc4c3)c2C#N)CCCC1` [Example 144, 5-(5-cyano-1-((1-methylcyclopentyl)methyl)-1H-pyrazol-4-yl)-6-(imidazo[1,2-a]pyridin-7-yl)picolinonitrile], for which the pEC50 was 7.27.

Regarding `COc1cc2ccc(-c3nc(C)ccc3-c3cnn(CC4CCC5(CC5)C4)c3)cc2nn1` (centres unmarked) [Example 145, 3-methoxy-7-(6-methyl-3-(1-(spiro[2.4]heptan-5-ylmethyl)-1H-pyrazol-4-yl)pyridin-2-yl)cinnoline], the pEC50 was 7.04.

For `c1cnc(-c2ccc3cccnc3c2)c(-c2cnn(CC3CCCC3)c2)c1` [Example 147, 7-(3-(1-(cyclopentylmethyl)-1H-pyrazol-4-yl)pyridin-2-yl)quinoline], the pEC50 is 7.30.

In the case of `Cc1ccc(-c2cnn(CC3CCCC3)c2)c(-c2ccc3c(c2)nc(Cl)n3C)n1` [Example 152, 2-chloro-5-(3-(1-(cyclopentylmethyl)-1H-pyrazol-4-yl)-6-methylpyridin-2-yl)-1-methyl-1H-benzo[d]imidazole], the pEC50 was 7.10.

For `N#Cc1ccc(-c2cnn(CC3(F)CCCC3)c2)c(-c2ccn3c(Br)cnc3c2)n1` [Example 153, 6-(3-bromoimidazo[1,2-a]pyridin-7-yl)-5-(1-((1-fluorocyclopentyl)methyl)-1H-pyrazol-4-yl)picolinonitrile], the pEC50 was 7.64.

As to `Cn1c(Cl)nc2cc(-c3nc(C#N)ccc3-c3cnn(CC4(C)CCCC4)c3)ccc21` [Example 154, 6-(2-chloro-1-methyl-1H-benzo[d]imidazol-5-yl)-5-(1-((1-methylcyclopentyl)methyl)-1H-pyrazol-4-yl)picolinonitrile], the pEC50 is 7.36.

As to `COCc1nc2cc(-c3nc(C#N)ccc3-c3cnn(CC4(F)CCCC4)c3)ccn2n1` [Example 155, 5-(1-((1-fluorocyclopentyl)methyl)-1H-pyrazol-4-yl)-6-(2-(methoxymethyl)-[1,2,4]triazolo[1,5-a]pyridin-7-yl)picolinonitrile], the pEC50 is 7.26.

With `COc1cc2ccc(-c3nc(C)c(C)cc3-c3cnn(CC4(C)CCCC4)c3)cc2nn1` [Example 157, 7-(5,6-dimethyl-3-(1-((1-methylcyclopentyl)methyl)-1H-pyrazol-4-yl)pyridin-2-yl)-3-methoxycinnoline], the pEC50 is 8.15.

For `Cc1ccc(-c2cnn(CC3CCCC3)c2)c(-c2ccc3cc(N)nnc3c2)n1` [Example 158, 7-(3-(1-(cyclopentylmethyl)-1H-pyrazol-4-yl)-6-methylpyridin-2-yl)cinnolin-3-amine], the pEC50 is 7.72.

As for `Cc1ccc(-c2cnn(CC3CCCC3)c2)c(-c2ccc3cc(I)nnc3c2)n1` [Example 159, 7-(3-(1-(cyclopentylmethyl)-1H-pyrazol-4-yl)-6-methylpyridin-2-yl)-3-iodocinnoline], the pEC50 is 7.85.

Consider `N#Cc1ccc(-c2nc(C#N)ccc2-c2cnn(CC3CCCC3)c2)cc1` [Example 160, 6-(4-cyanophenyl)-5-(1-(cyclopentylmethyl)-1H-pyrazol-4-yl)picolinonitrile], for which the pEC50 is 7.32.

For `CC1(Cn2cc(-c3ccc(C#N)nc3-c3ccc4cc(N5CCC5)cnc4c3)cn2)CCCC1` [Example 161, 6-(3-(azetidin-1-yl)Quinolin-7-yl)-5-(1-((1-methylcyclopentyl)methyl)-1H-pyrazol-4-yl)picolinonitrile], the pEC50 is 7.35.

As to `Cc1cn2ccc(-c3nc(C#N)c(Cl)cc3-c3cnn(CC4(C)CCCC4)c3)cc2n1` [Example 162, 3-chloro-5-(1-((1-methylcyclopentyl)methyl)-1H-pyrazol-4-yl)-6-(2-methylimidazo[1,2-a]pyridin-7-yl)picolinonitrile], the pEC50 was 7.40.

`CC1(Cn2cc(-c3ccc(C#N)nc3-c3ccc4cc(CO)nnc4c3)cn2)CCCC1` [Example 163, 6-(3-(hydroxymethyl)cinnolin-7-yl)-5-(1-((1-methylcyclopentyl)methyl)-1H-pyrazol-4-yl)picolinonitrile]: the pEC50 was 7.34.

As to `CC1(Cn2cc(-c3ccc(C#N)nc3-c3ccc4cc(CF)nnc4c3)cn2)CCCC1` [Example 164, 6-(3-(fluoromethyl)cinnolin-7-yl)-5-(1-((1-methylcyclopentyl)methyl)-1H-pyrazol-4-yl)picolinonitrile], the pEC50 was 7.07.

Turning to `Clc1ccc(-c2cnn(CC3CCCC3)c2)c(-c2ccc3cccnc3c2)n1` [Example 165, 7-(6-chloro-3-(1-(cyclopentylmethyl)-1H-pyrazol-4-yl)pyridin-2-yl)quinoline], the pEC50 was 8.15.

With `FC(F)Oc1ccc(-c2cnn(CC3CCCC3)c2)c(-c2ccc3cccnc3c2)n1` [Example 166, 7-(3-(1-(cyclopentylmethyl)-1H-pyrazol-4-yl)-6-(difluoromethoxy)pyridin-2-yl)quinoline], the pEC50 is 7.59.

For `c1cnc2cc(-c3nc(-n4cccn4)ccc3-c3cnn(CC4CCCC4)c3)ccc2c1` [Example 167, 7-(3-(1-(cyclopentylmethyl)-1H-pyrazol-4-yl)-6-(1H-pyrazol-1-yl)pyridin-2-yl)quinoline], the pEC50 is 7.01.

As to `C#Cc1ccc(-c2cnn(CC3CCCC3)c2)c(-c2ccc3cccnc3c2)n1` [Example 168, 7-(3-(1-(cyclopentylmethyl)-1H-pyrazol-4-yl)-6-ethynylpyridin-2-yl)quinoline], the pEC50 is 7.62.

For the compound `CC1(Cn2cc(-c3cc(F)c(C#N)nc3-c3ccn4cc(CF)nc4c3)cn2)CCCC1` [compound 136, 3-fluoro-6-(2-(fluoro-methyl)imidazo[1,2-a]pyridin-7-yl)-5-(1-((1-methylcyclopentyl)meth-yl)-1H-pyrazol-4-yl)picolinonitrile], the pEC50 was 7.72.

Regarding `Cn1cnc2cc(-c3nc(F)c(F)cc3-c3cnn(CC4(C)CCCC4)c3)cnc21` [compound 138, 6-(5,6-difluoro-3-(1-((1-methylcyclopentyl)methyl)-1H-pyrazol-4-yl)pyridin-2-yl)-3-methyl-3H-imidazo[4,5-b]pyridine], the pEC50 was 7.15.

With `COCc1cn2ccc(-c3nc(C#N)ccc3-c3cnn(CC4(C)CCCC4)c3)cc2n1` [compound 156, 6-(2-(methoxymeth-yl)imidazo[1,2-a]pyridin-7-yl)-5-(1-((1-methylcyclopentyl)meth-yl)-1H-pyrazol-4-yl)picolinonitrile], the pEC50 is 7.54.
